US9695155B2, “Herbicidal substituted pyrimidinyloxy benzene compounds” (E. I. DU PONT DE NEMOURS AND COMPANY, priority 2013, dated 2017)

Tests used:
[1] = system: wheat, winter; assay: Test C preemergence; type: in vivo, Triticum aestivum; conditions: for Wheat plant response rating: preemergence
How it was run: (§1)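 Rated visually on 0–100 (100 = complete control) after 13–15 days under glass. Treatments went onto freshly seeded loam/sand soil or onto emerged plants at the 1- to 4-leaf stage, using a surfactant-containing solvent formulation.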

[2] = system: galium; assay: Test C preemergence; type: in vivo, Galium aparine; conditions: for Galium plant response rating: preemergence
How it was run: as §1

[3] = system: lambsquarters; assay: Test C preemergence; type: in vivo, Chenopodium album; conditions: for Lambsquarters plant response rating: preemergence
How it was run: as §1

[4] = system: johnsongrass; assay: Test C preemergence; type: in vivo, Sorghum halepense; conditions: for Johnsongrass plant response rating: preemergence
How it was run: as §1

[5] = system: corn; assay: Test C preemergence; type: in vivo, Zea mays; conditions: for Corn plant response rating: preemergence
How it was run: as §1

[6] = system: oilseed rape; assay: Test C preemergence; type: in vivo, Brassica napus; conditions: for Oilseed Rape plant response rating: preemergence
How it was run: as §1

[7] = system: ragweed; assay: Test A postemergence; type: in vivo, Ambrosia elatior
How it was run: (§2)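 Greenhouse pot test, loam/sand soil. Formulation: non-phytotoxic solvent mix plus surfactant. Pre: directed spray onto soil after sowing. Post: plants at 1–2 leaf, 2–10 cm. Rated visually vs untreated controls at ~10 d, 0 (no effect) to 100 (complete control).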

[8] = system: soybean; assay: Test C preemergence; type: in vivo, Glycine max; conditions: for Soybean plant response rating: preemergence
How it was run: as §1

[9] = system: ragweed; assay: Test C preemergence; type: in vivo, Ambrosia elatior; conditions: for Ragweed plant response rating: preemergence
How it was run: as §1

[10] = system: kochia; assay: Test A preemergence; type: in vivo, Kochia scoparia
How it was run: as §2

[11] = system: blackgrass; assay: Test C preemergence; type: in vivo, Alopecurus myosuroides; conditions: for Blackgrass plant response rating: preemergence
How it was run: as §1

[12] = system: morningglory; assay: Test C preemergence; type: in vivo, Ipomoea coccinea; conditions: for Morningglory plant response rating: preemergence
How it was run: as §1

[13] = system: giant foxtail; assay: Test C preemergence; type: in vivo, Setaria faberii; conditions: for Foxtail, Giant plant response rating: preemergence
How it was run: as §1

[14] = system: barnyardgrass; assay: Test C preemergence; type: in vivo, Echinochloa crus-galli; conditions: for Barnyardgrass plant response rating: preemergence
How it was run: as §1

[15] = system: kochia; assay: Test A postemergence; type: in vivo, Kochia scoparia
How it was run: as §2

[16] = system: velvetleaf; assay: Test C preemergence; type: in vivo, Abutilon theophrasti; conditions: for Velvetleaf plant response rating: preemergence
How it was run: as §1

[17] = system: Italian ryegrass; assay: Test C preemergence; type: in vivo, Lolium multiflorum; conditions: for Ryegrass, Italian plant response rating: preemergence
How it was run: as §1

[18] = 16 g ai/ha, scale 0 to 100 (0 no effect, 100 complete control)
[19] = 125 g ai/ha, scale 0 (no effect) to 100 (complete control)
[20] = Preemergence, 62 g ai/ha, scale 0 to 100, 0 no effect, 100 complete control
[21] = 125 g ai/ha, 0 to 100 scale, 0 no effect, 100 complete control
[22] = 500 g ai/ha, 0 to 100 scale where 0 is no effect and 100 is complete control

Compound: N#Cc1cn(-c2c(C#N)cccc2Oc2ncc(Cl)cn2)nn1 [Compound 273]
- Wheat plant response rating [1, 18]: 0
- Wheat plant response rating [1, 19]: 5
- Plant response rating, Wheat [1, 20]: 0
- Galium plant response rating [2, 18]: 0
- Galium plant response rating [2, 19]: 98
- Plant response rating, Galium [2, 20]: 95
- Lambsquarters plant response rating [3, 18]: 35
- Lambsquarters plant response rating [3, 19]: 100
- Plant response rating, Lambsquarters [3, 20]: 100
- Johnsongrass plant response rating [4, 18]: 0
- Johnsongrass plant response rating [4, 19]: 80
- Plant response rating, Johnsongrass [4, 20]: 55
- Corn plant response rating [5, 18]: 0
- Corn plant response rating [5, 19]: 35
- Plant response rating, Corn [5, 20]: 45
- Oilseed Rape plant response rating [6, 18]: 0
- Oilseed Rape plant response rating [6, 19]: 100
- Plant response rating, Oilseed Rape [6, 20]: 80
- Plant response rating, Ragweed [7, 21]: 40
- Plant response rating, Ragweed [7, 22]: 90
- Soybean plant response rating [8, 18]: 5
- Soybean plant response rating [8, 19]: 65
- Plant response rating, Soybean [8, 20]: 40
- Ragweed plant response rating [9, 18]: 10
- Ragweed plant response rating [9, 19]: 85
- Plant response rating, Ragweed [9, 20]: 55
- Kochia plant response rating (0 to 100 scale) ([10]; 125 g ai/ha): 100
- Kochia plant response rating [10, 22]: 100
- Blackgrass plant response rating [11, 18]: 0
- Blackgrass plant response rating [11, 19]: 70
- Plant response rating, Blackgrass [11, 20]: 5
- Morningglory plant response rating [12, 18]: 5
- Morningglory plant response rating [12, 19]: 85
- Plant response rating, Morningglory [12, 20]: 55
- Foxtail, Giant plant response rating [13, 18]: 0
- Foxtail, Giant plant response rating [13, 19]: 90
- Plant response rating, Foxtail, Giant [13, 20]: 75
- Barnyardgrass plant response rating [14, 18]: 0
- Barnyardgrass plant response rating [14, 19]: 85
- Plant response rating, Barnyardgrass [14, 20]: 25
- Plant response rating, Kochia [15, 21]: 70
- Plant response rating, Kochia [15, 22]: 100
- Velvetleaf plant response rating [16, 18]: 10
- Velvetleaf plant response rating [16, 19]: 85
- Plant response rating, Velvetleaf [16, 20]: 85
- Ryegrass, Italian plant response rating [17, 18]: 0
- Ryegrass, Italian plant response rating [17, 19]: 60
- Plant response rating, Ryegrass, Italian [17, 20]: 0
